Source: patent US10294202B2, “Pyrrolidinones as herbicides” (FMC Corporation, priority 2013, dated 2019)

Assays:
[1] = system: barnyardgrass; assay: Test A pre-/postemergence herbicide test; type: in vivo, Echinochloa crus-galli
Procedure, shortened: (§1)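 Formulated compound (non-phytotoxic solvent, surfactant) sprayed pre- onto soil of seeded loam/sand pots or post- onto seedlings at 1–2 leaves; ~10 d greenhouse; 0–100 visual control rating versus untreated.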

[2] = system: crabgrass, large; assay: Test A pre-/postemergence herbicide test; type: in vivo, Digitaria sanguinalis
Procedure, shortened: as §1

[3] = system: giant foxtail; assay: Test A pre-/postemergence herbicide test; type: in vivo, Setaria faberii
Procedure, shortened: as §1

[4] = system: morningglory; assay: Test A pre-/postemergence herbicide test; type: in vivo, Ipomoea spp.
Procedure, shortened: as §1

[5] = system: pigweed; assay: Test A pre-/postemergence herbicide test; type: in vivo, Amaranthus retroflexus
Procedure, shortened: as §1

[6] = system: velvetleaf; assay: Test A pre-/postemergence herbicide test; type: in vivo, Abutilon theophrasti
Procedure, shortened: as §1

[7] = system: wheat; assay: Test A pre-/postemergence herbicide test; type: in vivo, Triticum aestivum
Procedure, shortened: as §1

[8] = system: corn; assay: Test A pre-/postemergence herbicide test; type: in vivo, Zea mays
Procedure, shortened: as §1

[9] = system: rice; assay: Test B flooded paddy test; type: in vivo, Oryza sativa; settings: 250 g ai/ha, Flood; scale of 0 to 100 where 0 is no effect and 100 is complete control
Description: (§2) Plant species in the flooded paddy test selected from rice (Oryza sativa), sedge, umbrella (small-flower umbrella sedge, Cyperus difformis), ducksalad (Heteranthera limosa), and barnyardgrass (Echinochloa crus-galli) were grown to the 2-leaf stage for testing. At time of treatment, test pots were flooded to 3 cm above the soil surface, treated by application of test compounds directly to the paddy water, and then maintained at that water depth for the duration of the test. Treated plants and controls were maintained in a greenhouse for 13 to 15 days, after which time all species were compared to controls and visually evaluated. Plant response ratings, summarized in Table B, are based on a scale of 0 to 100 where 0 is no effect and 100 is complete control. A dash (-) response means no test result.

[10] = system: sedge, umbrella; assay: Test B flooded paddy test; type: in vivo, Cyperus difformis; settings: 250 g ai/ha, Flood; scale of 0 to 100 where 0 is no effect and 100 is complete control
Description: as §2

[11] = system: ducksalad; assay: Test B flooded paddy test; type: in vivo, Heteranthera limosa; settings: 250 g ai/ha, Flood; scale of 0 to 100 where 0 is no effect and 100 is complete control
Description: as §2

[12] = system: barnyardgrass; assay: Test B flooded paddy test; type: in vivo, Echinochloa crus-galli; settings: 250 g ai/ha, Flood; scale of 0 to 100 where 0 is no effect and 100 is complete control
Description: as §2

[13] = system: kochia; assay: Test A pre-/postemergence herbicide test; type: in vivo, Kochia scoparia; settings: for Plant response rating, Kochia: 0 to 100 scale
Procedure, shortened: as §1

[14] = system: ragweed; assay: Test A pre-/postemergence herbicide test; type: in vivo, Ambrosia elatior; settings: for Plant response rating, Ragweed: 0 to 100 scale
Procedure, shortened: as §1

[15] = system: ryegrass, Italian; assay: Test A pre-/postemergence herbicide test; type: in vivo, Lolium multiflorum; settings: for Plant response rating, Ryegrass, Italian: 0 to 100 scale
Procedure, shortened: as §1

[16] = system: blackgrass; assay: Test A postemergence herbicide test; type: in vivo, Alopecurus myosuroides
Procedure, shortened: (§3)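 Visual injury rating, 0 (no effect) to 100 (complete control), versus untreated controls ~10 days after treatment. Postemergence spray applied at one- to two-leaf stage, plants 2–10 cm tall, potted in loam soil/sand. Greenhouse-held.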

[17] = system: galium; assay: Test A postemergence herbicide test; type: in vivo, Galium aparine
Procedure, shortened: as §3

[18] = system: rice; assay: Test C flooded paddy test; type: in vivo, Oryza sativa; settings: Flood
Procedure, shortened: (§4)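 2-leaf stage; flood 3 cm over soil; compound into paddy water; depth held; greenhouse 13–15 d; visual % control vs untreated (0 = none, 100 = complete); "-" = not tested.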

[19] = system: sedge, umbrella; assay: Test C flooded paddy test; type: in vivo, Cyperus difformis; settings: Flood
Procedure, shortened: as §4

[20] = system: ducksalad; assay: Test C flooded paddy test; type: in vivo, Heteranthera limosa; settings: Flood
Procedure, shortened: as §4

[21] = system: barnyardgrass; assay: Test C flooded paddy test; type: in vivo, Echinochloa crus-galli; settings: Flood
Procedure, shortened: as §4

[22] = Postemergence, 1000 g ai/ha, 0 to 100 scale (0 no effect, 100 complete control)
[23] = Preemergence, 1000 g ai/ha, visual rating on 0 to 100 scale (0 no effect, 100 complete control), approx. 10 days
[24] = Postemergence, 125 g ai/ha, 0 to 100 scale, 0 no effect, 100 complete control
[25] = Postemergence, 500 g ai/ha, 0 to 100 scale (0 no effect, 100 complete control)
[26] = Preemergence, 125 g ai/ha, visual rating on 0 to 100 scale (0 no effect, 100 complete control)
[27] = preemergence, 500 g ai/ha, 0 to 100 scale
[28] = 125 g ai/ha, visual rating, 0 to 100 scale, 0 no effect, 100 complete control, approximately 10 days, preemergence
[29] = Postemergence, 125 g ai/ha, 0 to 100 scale, 0 is no effect, 100 is complete control
[30] = preemergence, 500 g ai/ha, 0 to 100 scale, 0 is no effect and 100 is complete control
[31] = 125 g ai/ha, visual rating, 0 no effect, 100 complete control, approximately 10 days, preemergence
[32] = Postemergence, 125 g ai/ha, 0 is no effect, 100 is complete control
[33] = preemergence, 500 g ai/ha, 0 is no effect and 100 is complete control
[34] = 125 g ai/ha, 0 to 100 scale, 0 is no effect, 100 is complete control
[35] = 125 g ai/ha, scale of 0 to 100 where 0 is no effect and 100 is complete control, 13 to 15 days
[36] = 250 g ai/ha, scale of 0 to 100 where 0 is no effect and 100 is complete control, 13 to 15 days

O=C1NCC(c2ccc(F)c(F)c2)C1C(=O)Nc1ccccc1 (racemic) [Compound 30]
Plant response rating, Barnyardgrass [1, 22]: 90 | Plant response rating, Barnyardgrass [1, 23]: 90 | Plant response rating, Crabgrass, Large [2, 22]: 80 | Plant response rating, Crabgrass, Large [2, 23]: 90 | Plant response rating, Foxtail, Giant [3, 22]: 80 | Plant response rating, Foxtail, Giant [3, 23]: 90 | Plant response rating, Morningglory [4, 22]: 0 | Plant response rating, Morningglory [4, 23]: 0 | Plant response rating, Pigweed [5, 22]: 0 | Plant response rating, Pigweed [5, 23]: 0 | Plant response rating, Velvetleaf [6, 22]: 0 | Plant response rating, Velvetleaf [6, 23]: 0 | Plant response rating, Wheat [7, 22]: 0 | Plant response rating, Wheat [7, 23]: 0 | Plant response rating, Corn [8, 22]: 0 | Plant response rating, Corn [8, 23]: 0 | Plant response rating, Rice [9]: 0 | Plant response rating, Sedge, Umbrella [10]: 0 | Plant response rating, Ducksalad [11]: 0 | Plant response rating, Barnyardgrass [12]: 0

O=C1NCC(c2ccccc2)C1C(=O)Nc1ccccc1C(F)(F)F (racemic) [Compound 82]
Plant response rating, Barnyardgrass [1, 24]: 0 | Plant response rating, Barnyardgrass [1, 25]: 50 | Barnyardgrass plant response rating [1, 26]: 0 | Plant response rating, Barnyardgrass ([1]; preemergence, 500 g ai/ha, 0 to 100 scale (0 no effect, 100 complete control)): 50 | Plant response rating, Crabgrass, Large [2, 24]: 50 | Plant response rating, Crabgrass, Large [2, 25]: 70 | Crabgrass, Large plant response rating [2, 26]: 80 | Plant response rating, Crabgrass, Large [2, 27]: 90 | Plant response rating, Foxtail, Giant [3, 24]: 0 | Plant response rating, Foxtail, Giant [3, 25]: 70 | Foxtail, Giant plant response rating [3, 26]: 20 | Plant response rating, Foxtail, Giant [3, 27]: 70 | Plant response rating, Morningglory [4, 24]: 0 | Plant response rating, Morningglory [4, 25]: 10 | Plant response rating, Morningglory [4, 27]: 0 | Plant response rating, Pigweed [5, 24]: 0 | Plant response rating, Pigweed [5, 25]: 0 | Pigweed plant response rating [5, 26]: 0 | Plant response rating, Pigweed [5, 27]: 0 | Plant response rating, Velvetleaf [6, 24]: 0 | Plant response rating, Velvetleaf [6, 25]: 20 | Velvetleaf plant response rating [6, 26]: 0 | Plant response rating, Velvetleaf [6, 27]: 0 | Plant response rating, Wheat [7, 24]: 0 | Plant response rating, Wheat [7, 25]: 10 | Wheat plant response rating [7, 26]: 0 | Plant response rating, Wheat [7, 27]: 0 | Plant response rating, Corn [8, 24]: 0 | Plant response rating, Corn [8, 25]: 0 | Corn plant response rating [8, 26]: 0 | Plant response rating, Corn [8, 27]: 0 | Plant response rating, Sedge, Umbrella [10]: 80 | Plant response rating, Ducksalad [11]: 70 | Plant response rating, Barnyardgrass [12]: 0

O=C1NCC(c2cccc(C(F)(F)F)c2)C1C(=O)Nc1cccc(F)c1 (racemic) [Compound 208]
Plant response rating, Barnyardgrass [1, 28]: 40 | Plant response rating, Barnyardgrass [1, 29]: 50 | Barnyardgrass plant response rating (0 to 100 scale, 0 is no effect, 100 is complete control) ([1]; Postemergence, 500 g ai/ha): 80 | Plant response rating, Barnyardgrass [1, 30]: 90 | Plant response rating, Kochia [13, 31]: 0 | Plant response rating, Kochia [13, 32]: 0 | Kochia plant response rating (0 to 100 scale, 0 is no effect, 100 is complete control) ([13]; Postemergence, 500 g ai/ha): 60 | Plant response rating, Kochia [13, 33]: 20 | Plant response rating, Ragweed [14, 31]: 0 | Plant response rating, Ragweed [14, 32]: 0 | Ragweed plant response rating (0 to 100 scale, 0 is no effect, 100 is complete control) ([14]; Postemergence, 500 g ai/ha): 20 | Plant response rating, Ragweed [14, 33]: 0 | Plant response rating, Ryegrass, Italian [15, 31]: 0 | Plant response rating, Ryegrass, Italian [15, 32]: 0 | Ryegrass, Italian plant response rating (0 to 100 scale, 0 is no effect, 100 is complete control) ([15]; Postemergence, 500 g ai/ha): 40 | Plant response rating, Ryegrass, Italian [15, 33]: 20 | Plant response rating, Foxtail, Giant [3, 28]: 80 | Plant response rating, Foxtail, Giant [3, 29]: 90 | Foxtail, Giant plant response rating (0 to 100 scale, 0 is no effect, 100 is complete control) ([3]; Postemergence, 500 g ai/ha): 90 | Plant response rating, Foxtail, Giant [3, 30]: 90 | Plant response rating, Pigweed [5, 28]: 0 | Plant response rating, Pigweed [5, 29]: 0 | Pigweed plant response rating (0 to 100 scale, 0 is no effect, 100 is complete control) ([5]; Postemergence, 500 g ai/ha): 0 | Plant response rating, Pigweed [5, 30]: 0 | Plant response rating, Wheat [7, 29]: 0 | Wheat plant response rating (0 to 100 scale, 0 is no effect, 100 is complete control) ([7]; Postemergence, 500 g ai/ha): 40 | Plant response rating, Corn [8, 29]: 0 | Corn plant response rating (0 to 100 scale, 0 is no effect, 100 is complete control) ([8]; Postemergence, 500 g ai/ha): 50 | Plant response rating, Blackgrass [16, 34]: 20 | Blackgrass plant response rating (0 to 100 scale, 0 is no effect, 100 is complete control) ([16]; 500 g ai/ha): 60 | Plant response rating, Galium [17, 34]: 0 | Galium plant response rating (0 to 100 scale, 0 is no effect, 100 is complete control) ([17]; 500 g ai/ha): 50 | Plant response rating, Rice [18, 35]: 0 | Plant response rating, Rice [18, 36]: 0 | Plant response rating, Rice ([18]; 500 g ai/ha, scale 0 to 100): 0 | Plant response rating, Rice ([18]; 1000 g ai/ha, scale 0 to 100): 15 | Plant response rating, Sedge, Umbrella [19, 35]: 0 | Plant response rating, Sedge, Umbrella [19, 36]: 0 | Plant response rating, Sedge, Umbrella ([19]; 500 g ai/ha, scale 0 to 100): 0 | Plant response rating, Sedge, Umbrella ([19]; 1000 g ai/ha, scale 0 to 100): 0 | Plant response rating, Ducksalad [20, 35]: 0 | Plant response rating, Ducksalad [20, 36]: 45 | Plant response rating, Ducksalad ([20]; 500 g ai/ha, scale 0 to 100): 45 | Plant response rating, Ducksalad ([20]; 1000 g ai/ha, scale 0 to 100): 100 | Plant response rating, Barnyardgrass [21, 35]: 0 | Plant response rating, Barnyardgrass [21, 36]: 20 | Plant response rating, Barnyardgrass ([21]; 500 g ai/ha, scale 0 to 100): 45 | Plant response rating, Barnyardgrass ([21]; 1000 g ai/ha, scale 0 to 100): 65
